These results are taken from EPA's ToxValDB 9.5 (doi:10.2903/j.efsa.2008.148r).

Converted amounts (≈) assume the structure as drawn.

One series relates to Poecilus cupreus. As to the kind of experiment: LR50; higher = less toxic. Particulars: not reported; mortality.
The next series deals with Daphnia magna. The following applies: chronic/long-term; duration: 21 days; reproduction.
The test system of the next series is Macromiidae. The following applies: acute; duration: 72 hours; biomass.
Another series relates to Canidae. The following applies: subchronic; duration: 90 days; oral; Dog Other; clinical signs.
A further series deals with Oryctolagus sp. The following applies: reproduction developmental; body weight.
Another series deals with Apis mellifera. Particulars: acute; duration: 48 hours; oral; unspecified; mortality.
The next series deals with Coturnix japonica. The following applies: acute; oral; mortality.
A further series deals with Folsomia candida. Particulars: chronic/long-term; duration: 28 days; reproduction.
The next series relates to Mus musculus. Particulars: acute; oral; mortality.
Another series has as its system Avena sativa. The following applies: acute; duration: 14 days; growth.
A further series deals with Lepidium sativum. The following applies: acute; duration: 14 days; growth.

The compound `O=[N+]([O-])/N=C1\NCCN1Cc1ccc(Cl)nc1` [Imidacloprid] registered an LR50 in the series on Poecilus cupreus of 0.136 mg/kg. Besides, the NOAEL amounted to 17 mg/kg-day in the series on Rattus norvegicus (chronic); 5.7 mg/kg-day in the series on Rattus norvegicus (chronic, duration: 2 years, histopathology: nonneoplastic); 9.3 mg/kg-day with Rattus norvegicus (subchronic, duration: 90 days, oral, histopathology: nonneoplastic); 7.8 mg/kg-day in the series on Canidae; 8 mg/kg-day with Oryctolagus sp.; 9.3 mg/kg-day in the series on Colinus virginianus (reproduction developmental). The NOEC in the series with Daphnia magna is 1.8 mg/L; with Macromiidae, 10 mg/L; in the series on Oncorhynchus mykiss (chronic/long-term, duration: 91 days, time to swim up), 9.02 mg/L; in the series on Folsomia candida, 1.25 mg/kg; in the series with Avena sativa, no less than 100 mg/kg; in the series with Tagia sp. (chronic/long-term, duration: 56 days, reproduction), greater than 0.178 mg/kg. The NOEC with Lepidium sativum came to 10 mg/kg. For the same compound, the figures for the LD50 in the series with Apis mellifera, in the series with Coturnix japonica and in the series on Mus musculus were 0.0037 µg/piece, 31 mg/kg-day and 131 mg/kg-day, respectively. Further, the LC50 in the series on Oncorhynchus mykiss (acute, duration: 96 hours, mortality) turned out to be 211 µg/mL (≈ 825 µM); in the series with Tagia sp. (acute, duration: 14 days, mortality), 10.7 mg/kg. The compound also returned an NOEL in the series on Colinus virginianus (short-term, oral, diet) of 29.4 mg/kg-day.
